{"source": "patent US11690852B2", "about": "“Reduction of the incidence or recurrence of breast cancer in postmenopausal women treated with intravaginal sex steroid precursor” (Endorecherche, Inc., priority 2020, dated 2023)", "key": {"[1]": {"system": "breast cancer", "test": "Retrospective cohort analysis of claims data: 1-year incidence of breast cancer (Objective A)", "assay_type": "in vivo, women", "source_text": "(§1) We set out to assess the 1-year incidence rate of breast cancer among women treated with prasterone compared to matched controls of untreated VVA women (Objective A). We also assessed the 1-year recurrence rate of breast cancer among women treated with prasterone with a history of breast cancer compared to matched controls of untreated VVA women (Objective B).\n(§2) In order to evaluate whether total exposure to prasterone in the follow-up window alters the results of the primary objectives A and B, we used sensitivity analyses to stratify patients based on cumulative days of supply.\n(§3) This retrospective cohort analysis was based on claims data from the Integrated Dataverse (IDV) database from Symphony Health Solutions. Data included in the analysis spanned a 5-year period from February 2015 through January 2020. For both objectives, the index date was defined as the first prasterone prescription fill date for treated women and as the initial VVA diagnosis date for untreated women (FIG. 1). Data were included from women who were at least 45 years of age and had at least one year of data available before and after the index date. Women treated with vaginal estrogen or ospem ifene were excluded. History of breast cancer prior to the index date was assessed. Before matching, 47,395 patients with at least one prescription of intravaginal prasterone (6.5 mg suppository) filled and no history of breast cancer were included and 2,986 with a history of breast cancer. Before matching again, 669,623 women were included in the pool of untreated VVA patients without a history of breast cancer, and 53,896 with a history of breast cancer (FIG. 2).\n(§4) To ensure a balanced risk profile across treatment groups the women treated with prasterone were matched with a 1:1 ratio to untreated women based on the following parameters (FIG. 3): • Calendar year • Age • Prior to the index date: • Cancer diagnosis • Breast cancer diagnosis • Use of chemotherapy • Family history of breast cancer • Mammography • Use of estrogen therapy • Obesity and hyperlipidemia • Assessed during the 12 months prior to the index date • Charlson Elixhauser comorbidity index\n(§5) Primary objectives A and B included all women meeting the inclusion criteria and having at least one prescription of prasterone filled. We then set minimum exposure thresholds to stratify patients based on the length of exposure. Thresholds were set at least 90 or 180 days of supply. Incidence (objective A) and recurrence (objective B) analyses were conducted in these new groups."}, "[2]": {"system": "breast cancer", "test": "Retrospective cohort analysis of claims data: 1-year recurrence of breast cancer in women with a history of breast cancer (Objective B)", "assay_type": "in vivo", "source_text": "as §1, §2, §3, §4, §5"}, "[3]": {"system": "breast cancer", "details": "postmenopausal women; testosterone supplements; cited from earlier work"}, "[4]": {"system": "breast intraepithelial neoplasia", "details": "5 mg/d for 3 years; 55% of women menopaused; cited from earlier work"}, "[5]": {"details": "all ages (≥45 years old), any days of supply"}, "[6]": {"details": "minimum exposure threshold either 90 days or 180 days of supply"}}, "note": "“Also recorded” adds a separate entry of the source.", "data": [{"compound": "C[C@]12CC[C@H](O)CC1=CC[C@@H]1[C@@H]2CC[C@]2(C)C(=O)CC[C@@H]12", "note": "[Intravaginal prasterone, dehydroepiandrosterone]", "values": [{"measurement": "% of incidence of breast cancer", "setting": "[1]; 45 to 54 years old", "result": 0.34, "unit": "%"}, {"measurement": "incidence ratio (prasterone / untreated VVA)", "setting": "[1]; 45 to 54 years old", "result": 0.85}, {"measurement": "% of incidence of breast cancer", "setting": "[1]; 55 to 64 years old", "result": 0.37, "unit": "%"}, {"measurement": "incidence ratio (prasterone / untreated VVA)", "setting": "[1]; 55 to 64 years old", "result": 0.87}, {"measurement": "% of incidence of breast cancer", "setting": "[1]; 65 years old and older", "result": 0.58, "unit": "%"}, {"measurement": "incidence ratio (prasterone / untreated VVA)", "setting": "[1]; 65 years old and older", "result": 1.03}, {"measurement": "incidence ratio (prasterone / untreated VVA)", "setting": "[1]; [5]", "result": 0.89}, {"measurement": "% of incidence of breast cancer", "setting": "[1]; all ages (≥45 years old), any days of supply, 1-year, 6.5 mg suppository", "result": 0.39, "unit": "%"}, {"measurement": "% of incidence of breast cancer", "setting": "[1]; at least 90 days of supply", "result": 0.28, "unit": "%"}, {"measurement": "incidence ratio (prasterone / untreated VVA)", "setting": "[1]; at least 90 days of supply", "result": 0.55}, {"measurement": "% of incidence of breast cancer", "setting": "[1]; at least 180 days of supply", "result": 0.25, "unit": "%"}, {"measurement": "incidence ratio (prasterone / untreated VVA)", "setting": "[1]; at least 180 days of supply", "result": 0.48}, {"measurement": "incidence of breast cancer compared to the untreated VVA group (in words)", "setting": "[1]; at least one prescription filled, all ages and age groups 45-54, 55-64, 65+", "result": "no statistically significant difference; also recorded: no statistical difference"}, {"measurement": "incidence of breast cancer compared to the untreated VVA groups (in words)", "setting": "[1]; [6]", "result": "significant reduction"}, {"measurement": "% of recurrence of breast cancer", "setting": "[2]; 45 to 54 years old", "result": 41.63, "unit": "%"}, {"measurement": "recurrence ratio (prasterone / untreated VVA)", "setting": "[2]; 45 to 54 years old", "result": 0.84}, {"measurement": "% of recurrence of breast cancer", "setting": "[2]; 55 to 64 years old", "result": 31.42, "unit": "%"}, {"measurement": "recurrence ratio (prasterone / untreated VVA)", "setting": "[2]; 55 to 64 years old", "result": 0.82}, {"measurement": "% of recurrence of breast cancer", "setting": "[2]; 65 years old and older", "result": 32.77, "unit": "%"}, {"measurement": "recurrence ratio (prasterone / untreated VVA)", "setting": "[2]; 65 years old and older", "result": 0.91}, {"measurement": "recurrence ratio (prasterone / untreated VVA)", "setting": "[2]; [5]", "result": 0.85}, {"measurement": "% of recurrence of breast cancer", "setting": "[2]; all ages (≥45 years old), any days of supply, history of breast cancer", "result": 34.21, "unit": "%"}, {"measurement": "Recurrence analysis: % of incidence", "setting": "[2]; at least 90 days of supply", "result": 30.48, "unit": "%"}, {"measurement": "recurrence ratio (prasterone / untreated VVA)", "setting": "[2]; at least 90 days of supply", "result": 0.83}, {"measurement": "Recurrence analysis: % of incidence", "setting": "[2]; at least 180 days of supply", "result": 30.29, "unit": "%"}, {"measurement": "recurrence ratio (prasterone / untreated VVA)", "setting": "[2]; at least 180 days of supply", "result": 0.78}, {"measurement": "recurrence of breast cancer compared to the untreated VVA group (in words)", "setting": "[2]; at least one prescription filled, all ages and three age groups", "result": "significantly lower; also recorded: significant reduction of recurrence"}, {"measurement": "recurrence of breast cancer compared to the untreated VVA groups (in words)", "setting": "[2]; [6]", "result": "significant reduction"}]}, {"compound": "C[C@]12CC[C@H]3[C@@H](CCC4=CC(=O)CC[C@@]43C)[C@@H]1CC[C@@H]2O", "note": "[testosterone]", "values": [{"measurement": "breast cancer incidence (in words)", "setting": "[3]", "result": "reduction of the breast cancer incidence"}]}, {"compound": "CC/C(=C(\\c1ccccc1)c1ccc(OCCN(C)C)cc1)c1ccccc1", "note": "[Tamoxifen]", "values": [{"measurement": "recurrence of breast intraepithelial neoplasia (in words)", "setting": "[4]", "result": "halve the recurrence of breast intraepithelial neoplasia"}]}]}
